Test results reported in US6610694B1, “Condensed pyridazine compounds, their production and use” (Takeda Chemical Industries, Ltd., priority 1998, dated 2003).

What was measured:
[1] = tested on: histamine-induced skin reactions in guinea pigs; test: Effect on histamine-induced skin reactions in guinea pigs (skin vascular permeability); format: in vivo, guinea pig; settings: oral 3 mg/kg
Procedure: Effect on Histamine-induced Skin Reactions in Guinea Pigs
Male Hartley guinea pigs weighing about 500 g were used. After the dorsal hair was shaved under ether anesthesia, 1 ml of a 2.5% pontamine sky blue solution was injected intravenously administered, and then 0.1 ml of histamine at 3 μg/ml was injected intradermally into 2 sites (left and right) in the back. Thirty minutes after the injection of histamine, the animals were killed by bleeding and the skin was removed. Two perpendicular diameters (mm) of each blue spot on the inside of the skin were measured and multiplied; the mean for the two products was taken as the microvascular permeability index. Test compounds were suspended in a 5% gum arabic solution and orally administered in a volume of 0.2 ml/100 g body weight 1 hour before histamine administration. Animals in the control group received the same volume of a 5% gum arabic solution. The suppression rate of the sample for the title reaction was calculated using Equation 1, and the results are given in Table 1.
Inhibition (%) of histamine-induced skin reactions=100×(1−vascular permeability index in the presence of drug/vascular permeability index in control group) Equation 1
In the same manner as Experimental Example 1a, the effects of various example compounds on histamine-induced skin reactions in guinea pigs were examined.

guinea pig eosinophils = test: Suppression of LTB4-induced chemotactic reaction in guinea pig eosinophils; format: cell-based
Procedure: 1) Preparation of Guinea Pig Eosinophils
To male Hartley guinea pigs, 2 ml of equine serum (Bio-Whittaker, Inc.) was intraperitoneally administered once weekly for 8 consecutive weeks. At 48 hours after final administration, 75 ml of physiological saline was intraperitoneally injected, after which the saline was recovered and centrifuged at 400×g for 5 minutes. The resulting sediment was suspended in 5 ml of Percoll solution (density (d)=1.07) and layered on top of the multiple layers of different densities of Percoll solution (density(d)=1.112, 5 ml; d=1.095, 10 ml; d=1.090, 10 ml; d=1.085, 5 ml), followed by centrifugation at 1,000×g for 25 minutes (20° C.). The cell layer formed at the interface between densities 1.112 and 1.095 was collected. Erythrocytes present in the collected cell sediment were removed by hypotonic treatment (suspended in water for […]).
The cell sediment was washed 3 times with Hanks' solution containing 10 mM Hepes (Dojin Kagaku) (Hanks-Hepes) and suspended in a Hanks-Hepes solution containing 2% human serum albumin (Wako Pure Chemical Industry or Sigma) (Hanks-Hepes-HSA) to a final concentration of 5.56×10^6 cells/ml. Eosinophil purity was 90%, viability being over 98%.
2) Determination of Chemotactic Reaction Suppression
To a 24-well petri dish, which serves as a lower chamber, 600 μl of Hanks-Hepes-HSA solution containing LTB4 (final concentration 10^−8 M, Cascade Biochemical Ltd.), was transferred, followed by incubation at 37° C. for 30 minutes in a carbon dioxide incubator. Separately, 200 μl of eosinophil suspension (5×10^6 cells/ml), previously incubated at 37 C for 15 minutes, was added to Chemotaxicell (polycarbonate membrane, pore size 3 μm, thickness 10 μm), which serves as an upper chamber, after the upper chamber was attached to the 24-well petri dish. After 2 hours of reaction in the CO2 incubator, the Chemotaxicell was removed; 60 μl of a 2% (w/v) solution of EDTA in physiological saline was added to the liquid in the lower chamber. After the mixture was on cooled ice, the cells migrating into the lower chamber were counted using a blood cell counter [Coulter Counter (trade name)]. The test drug, dissolved in N,N-dimethyl formamide (DMF), was added to both the upper and lower chambers to a final concentration of 10^-5 M.
Chemotactic reaction suppression rate=[1−(number of migrating cells in the presence of drug/number of migrating cells in the absence of drug).]×100 Equation 2
Suppression rates of LTB4-induced chemotactic reaction by test substances (1×10^−5 M) were calculated using the above equation.
In the same manner as Experimental Example 2a, the percent suppression of LTB4-induced chemotactic reactions by various example compounds was calculated.

[2] = same manner as Experimental Example 1a, Table 3
[3] = LTB4-induced chemotaxis, same manner as Experimental Example 2a (1×10^−5 M), Table 4
[4] = 1 hour before intradermal histamine, Table 1
[5] = LTB4 10^−8 M-induced chemotaxis, test substance 1×10^−5 M, Table 2

With CCOC(=O)Cn1nc2ccc(NCCCN3CCC(OC(c4ccccc4)c4ccccc4)CC3)nn2c1=O [Example 7b, ethyl 2-[6-[3-[4-(Diphenylmethoxy)piperidino]propylamino]-3-oxo[1,2,4]triazolo[4,3-b]pyridazin-2(3H)-yl]acetate] the “Suppression (%) of histamine-induced skin vascular permeability elevation, oral administration at 3 mg/kg” value (“Suppression (%)” below) [1, 2] was 89%, the “Suppression rate (%)” value (guinea pig eosinophils; [3]) was 26% and the melting point was 137 to 139 °C.

For CCOC(=O)C(C)(C)n1nc2ccc(NCCCN3CCC(OC(c4ccccc4)c4ccccc4)CC3)nn2c1=O.Cl [Example 8b, Ethyl 2-[6-[3-[4-(Diphenylmethoxy)piperidino]propylamino]-3-oxo[1,2,4]triazolo[4,3-b]pyridazin-2(3H)-yl]-2-methylpropionate Hydrochloride], the “Suppression (%)” value [1, 2] was 74%, the “Suppression rate (%)” value (guinea pig eosinophils; [3]) was 57% and the melting point was 162 °C.

For CC(C)(C)c1nnc2ccc(OCCCN3CCC(OC(c4ccccc4)c4ccccc4)CC3)nn12 [Example 13a, 3-tert-Butyl-6-[3-[4-(diphenylmethoxy)piperidino]propoxy][1,2,4]triazolo[4.3-b]pyridazine], the “Suppression (%)” value [1, 4] was 79% and the “Suppression rate (%)” value (guinea pig eosinophils; [5]) was 41%.

In the case of c1ccc(C(OC2CCN(CCCCCCNc3ccc4nncn4n3)CC2)c2ccccc2)cc1 [Example 10a, 6-[6-[4-(Diphenylmethoxy)piperidino]hexylamino][1,2,4]triazolo[4,3-b]pyridazine], the “Suppression (%)” value [1, 4] is reported as 91%, the “Suppression rate (%)” value (guinea pig eosinophils; [5]) is reported as 60% and the melting point is reported as 124 to 127 °C.

In the case of O=C(O)c1nnc2ccc(NCCCN3CCC(OC(c4ccccc4)c4ccccc4)CC3)nn12 [Example 22a, 6-[3-[4-(Diphenylmethoxy)piperidino]propylamino][1,2,4]triazolo[4,3-b]pyridazine-3-carboxylic Acid], the “Suppression (%)” value [1, 4] is reported as 86%, the “Suppression rate (%)” value (guinea pig eosinophils; [5]) is reported as 50% and the melting point is reported as 102 to 104 °C.
